Among the data in patent US7456191B2, “N-Aryl-sulfoximine-substituted pyrimidines as CDK-and/or VEGF inhibitors, their production and use as pharmaceutical agents” (Schering AG, priority 2005, dated 2008) are IC50 values, retold here.

pIC50: −log10 of the molar value.

For experiment [1], the system named is MCF7, hormone-independent human breast cancer cells. Description: Proliferation assay, MCF7. The class given is cell-based. The settings on record: 96 h, 4 days, crystal violet. The text has this:
(§1) Cultivated human tumor cells (MCF7, hormone-independent human breast cancer cells, related to ATCC HTB22; NCI-H460, human non-small-cell lung cancer cells, ATCC HTB-177; DU 145, hormone-independent human prostate cancer cells, ATCC HTB-81; MaTu-MDR, hormone-independent, multiple pharmaceutical agent-resistant human breast cancer cells, EPO-GmbH, Berlin) were flattened out at a density of about 5000 cells/measuring point, depending on the growth rate of the respective cells, in a 96-well multititer plate in 200 μl of the corresponding growth medium. After 24 hours, the cells of one plate (zero-point plate) were colored with crystal violet (see below), while the medium of the other plates was replaced by fresh culture medium (200 μl), to which the test substances were added in various concentrations (0 μm, as well as in the range of 0.01-30 μm; the final concentration of the solvent dimethyl sulfoxide was 0.5%). The cells were incubated for 4 days in the presence of test substances. The cell proliferation was determined by coloring the cells with crystal violet: the cells were fixed by adding 20 μl/measuring point of an 11% glutaric aldehyde solution for 15 minutes at room temperature. After three washing cycles of the fixed cells with water, the plates were dried at room temperature. The cells were colored by adding 100 μl/measuring point of a 0.1% crystal violet solution (the pH was set at 3 by adding acetic acid). After three washing cycles of the colored cells with water, the plates were dried at room temperature. The dye was dissolved by adding 100 μl/measuring point of a 10% acetic acid solution. The extinction was determined by photometry at a wavelength of 595 nm. The change of cell growth, in percent, was calculated by normalization of the measured values to the extinction values of the zero-point plate (=0%) and the extinction of the untreated (0 μm) cells (=100%).

Experiment [2] relates to NCI-H460, human non-small-cell lung cancer cells. The experiment can be described thus: Proliferation assay, H460. The settings on record: NCI-H460, 96 h, 4 days, crystal violet. The class given is cell-based.
Text: as §1

Experiment [3] concerns DU 145, hormone-independent human prostate cancer cells. The experiment can be described thus: Proliferation assay, DU145. The class given is cell-based. Particulars: DU-145, 96 h, 4 days, crystal violet.
Text: as §1

The next experiment deals with MaTu-ADR. The experiment can be described thus: Proliferation assay, MaTu-ADR. The settings on record: Homo sapiens, 96 h; MaTu-ADR cells, 4 days, crystal violet. The class given is cell-based.
For a further experiment, the target named is T1, CDK2/CycE (Homo sapiens, UniProt P24941).
T1 construct: GST; purchased ProQinase GmbH, Freiburg; host or cells: baculovirus-infected insect cells (Sf9)
Description: CDK2/CycE kinase assay. The format is biochemical. The settings on record: histone IIIS substrate, 0.5 μm ATP, 33P filter assay. On the procedure: Recombinant CDK2- and CycE-GST-fusion proteins, purified from baculovirus-infected insect cells (Sf9), were purchased by ProQinase GmbH, Freiburg. Histone IIIs, which was used as a kinase substrate, was purchased by the Sigma Company.
CDK2/CycE (50 ng/measuring point) was incubated for 15 minutes at 22° C. in the presence of various concentrations of test substances (0 μm, as well as within the range of 0.01-100 μm) in assay buffer [50 mmol of tris/HCl, pH 8.0, 10 mmol of MgCl2, 0.1 mmol of Na ortho-vanadate, 1.0 mmol of dithiothreitol, 0.5 μm of adenosine triphosphate (ATP), 10 μg/measuring point of histone IIIS, 0.2 μCi/measuring point of ^33P-gamma ATP, 0.05% NP40, 12.5% dimethyl sulfoxide]. The reaction was stopped by adding EDTA solution (250 mmol, pH 8.0, 14 μl/measuring point).
From each reaction batch, 10 μl was applied to P30 filter strips (Wallac Company), and non-incorporated ^33P-ATP was removed by subjecting the filter strips to three washing cycles for 10 minutes each in 0.5% phosphoric acid. After the filter strips were dried for one hour at 70° C., the filter strips were covered with scintillator strips (MeltiLex™ A, Wallac Company) and baked for one hour at 90° C. The amount of incorporated ^33P (substrate phosphorylation) was determined by scintillation measurement in a gamma-radiation measuring device (Wallac).

Another experiment addresses T2, CDK1/CycB (Homo sapiens, UniProt P06493).
T2 construct: GST; purchased ProQinase GmbH, Freiburg; host or cells: baculovirus-infected insect cells (Sf9)
The experiment can be described thus: CDK1/CycB kinase assay. The class given is biochemical. Particulars: histone IIIS substrate, 0.5 μm ATP, 33P filter assay. The protocol:
Recombinant CDK1- and CycB-GST-fusion proteins, purified from baculovirus-infected insect cells (Sf9), were purchased from ProQinase GmbH, Freiburg. Histone IIIS, used as a kinase substrate, is available commercially from the Sigma Company.
CDK1/CycB (200 ng/measuring point) was incubated for 15 minutes at 22° C. in the presence of various concentrations of test substances (0 μm, as well as within the range of 0.01-100 μm) in assay buffer [50 mmol of tris/HCl, pH 8.0, 10 mmol of MgCl2, 0.1 mmol of Na ortho-vanadate, 1.0 mmol of dithiothreitol, 0.5 μm of adenosine triphosphate (ATP), 10 μg/measuring point of histone IIIS, 0.2 μCi/measuring point of ^33P-gamma ATP, 0.05% NP40, 12.5% dimethyl sulfoxide]. The reaction was stopped by adding EDTA solution (250 mmol, pH 8.0, 14 μl/measuring point).
(§2) From each reaction batch, 10 μl was applied to P30 filter strips (Wallac Company), and non-incorporated 33P-ATP was removed by subjecting the filter strips to three washing cycles for 10 minutes each in 0.5% phosphoric acid. After the filter strips were dried for one hour at 70° C., the filter strips were covered with scintillator strips (MeltiLex™ A, Wallac Company) and baked for one hour at 90° C. The amount of incorporated 33P (substrate phosphorylation) was determined by scintillation measurement in a gamma-radiation measuring device (Wallac).

Experiment [4] addresses T3, VEGF receptor tyrosine kinase-2 (Homo sapiens, UniProt P35968).
T3 construct: GST; made in house; host or cells: baculovirus-infected insect cells (Sf9)
The experiment can be described thus: VEGF receptor-2 kinase assay. Particulars: poly-(Glu4Tyr) substrate, 8 μmol ATP, 33P filter assay; read-out: VEGF-R2 IC50. The format is biochemical. The protocol:
VEGF Receptor-2 Kinase Assay
Recombinant VEGF receptor tyrosine kinase-2 was purified as a GST fusion protein from baculovirus-infected insect cells (Sf9). Poly-(Glu4Tyr), which was used as a kinase substrate, was purchased by the Sigma Company. VEGF receptor tyrosine kinase (90 ng/measuring point) was incubated for 10 minutes at 22° C. in the presence of various concentrations of test substances (0 μm, as well as within the range of 0.001-30 μm) in 30 μl of assay buffer [40 mmol of Tris/HCl, […], 10 mmol of MgCl2, 1 mmol of MnCl2, 3 μmol of Na ortho-vanadate, 1.0 mmol of dithiothreitol, 8 μmol of adenosine trisphosphate (ATP), 27 μg/measuring point of poly-(Glu4Tyr), 0.2 μCi/measuring point of 33P-gamma ATP, 1% dimethyl sulfoxide]. The reaction was stopped by adding EDTA solution (250 mmol, pH 7.0, 10 μl/measuring point).
as §2

Another experiment deals with Human Carboanhydrase-2 (Homo sapiens, UniProt P00918). Description: Carboanhydrase assay. The class given is biochemical. Particulars: 4-nitrophenyl acetate hydrolysis, 400 nm; read-out: Inhibition of Human Carboanhydrase-2 IC50. The protocol:
2 μl of the test compounds, dissolved in DMSO (100× the final concentration), in a concentration range of 0.03-10 μm (final), was pipetted as 4× determinations into the holes of a 96-hole microtiter plate. Holes that contained the solvent without test compounds were used as reference values (1. Holes without carboanhydrase for correction of the non-enzymatic hydrolysis of the substrate, and 2. Holes with carboanhydrase for determining the activity of the non-inhibited enzyme).
188 μl of assay buffer (10 mmol of Tris/HCl, pH 7.4, 80 mmol of NaCl), with or without 3 units/hole on carboanhydrase I or II, was pipetted into the holes of the microtiter plate.

T3 sequence (P35968 20-1356): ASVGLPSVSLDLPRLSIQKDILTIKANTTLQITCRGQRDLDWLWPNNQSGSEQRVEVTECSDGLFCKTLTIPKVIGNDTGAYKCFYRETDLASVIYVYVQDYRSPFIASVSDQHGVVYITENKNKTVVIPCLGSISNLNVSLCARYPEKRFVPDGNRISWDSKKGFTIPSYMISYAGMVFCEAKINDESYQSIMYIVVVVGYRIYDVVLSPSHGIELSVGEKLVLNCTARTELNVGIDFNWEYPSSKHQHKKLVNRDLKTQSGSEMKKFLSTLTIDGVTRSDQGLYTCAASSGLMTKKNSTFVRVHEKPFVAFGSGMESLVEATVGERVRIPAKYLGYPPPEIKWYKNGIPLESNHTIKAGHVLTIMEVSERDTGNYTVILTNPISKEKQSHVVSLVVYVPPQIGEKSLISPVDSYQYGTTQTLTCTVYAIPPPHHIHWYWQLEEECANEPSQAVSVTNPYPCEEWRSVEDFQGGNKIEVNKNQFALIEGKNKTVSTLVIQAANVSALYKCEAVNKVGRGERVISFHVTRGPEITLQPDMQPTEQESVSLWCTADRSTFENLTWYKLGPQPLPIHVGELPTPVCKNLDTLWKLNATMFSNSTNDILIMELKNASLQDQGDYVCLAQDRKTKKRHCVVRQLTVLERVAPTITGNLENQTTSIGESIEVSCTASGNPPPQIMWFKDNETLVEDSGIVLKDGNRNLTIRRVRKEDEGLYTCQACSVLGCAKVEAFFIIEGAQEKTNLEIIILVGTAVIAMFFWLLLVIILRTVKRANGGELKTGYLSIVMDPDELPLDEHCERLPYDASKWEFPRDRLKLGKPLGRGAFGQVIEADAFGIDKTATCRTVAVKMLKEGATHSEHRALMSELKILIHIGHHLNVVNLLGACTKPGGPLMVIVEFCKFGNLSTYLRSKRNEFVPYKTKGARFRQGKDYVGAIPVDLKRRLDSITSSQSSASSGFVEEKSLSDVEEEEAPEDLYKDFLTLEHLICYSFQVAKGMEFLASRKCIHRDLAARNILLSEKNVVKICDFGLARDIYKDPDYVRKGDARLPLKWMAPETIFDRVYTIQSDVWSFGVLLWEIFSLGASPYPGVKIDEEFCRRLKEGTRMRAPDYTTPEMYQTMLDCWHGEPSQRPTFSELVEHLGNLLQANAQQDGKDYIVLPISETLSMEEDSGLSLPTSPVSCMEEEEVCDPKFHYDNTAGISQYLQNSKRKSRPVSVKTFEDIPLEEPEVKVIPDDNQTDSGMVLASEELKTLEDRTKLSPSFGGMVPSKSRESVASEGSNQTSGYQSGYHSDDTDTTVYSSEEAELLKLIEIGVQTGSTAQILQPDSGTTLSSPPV
T2 sequence (P06493 whole entry): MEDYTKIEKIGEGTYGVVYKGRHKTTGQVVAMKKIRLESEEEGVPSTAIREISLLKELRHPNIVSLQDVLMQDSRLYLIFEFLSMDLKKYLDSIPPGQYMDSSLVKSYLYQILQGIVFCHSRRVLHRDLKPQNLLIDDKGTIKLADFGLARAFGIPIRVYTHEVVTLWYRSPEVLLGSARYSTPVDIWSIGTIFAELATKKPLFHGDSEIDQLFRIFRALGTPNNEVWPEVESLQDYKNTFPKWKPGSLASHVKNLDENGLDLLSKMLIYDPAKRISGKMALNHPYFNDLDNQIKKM
T2 sequence (P14635 whole entry partner): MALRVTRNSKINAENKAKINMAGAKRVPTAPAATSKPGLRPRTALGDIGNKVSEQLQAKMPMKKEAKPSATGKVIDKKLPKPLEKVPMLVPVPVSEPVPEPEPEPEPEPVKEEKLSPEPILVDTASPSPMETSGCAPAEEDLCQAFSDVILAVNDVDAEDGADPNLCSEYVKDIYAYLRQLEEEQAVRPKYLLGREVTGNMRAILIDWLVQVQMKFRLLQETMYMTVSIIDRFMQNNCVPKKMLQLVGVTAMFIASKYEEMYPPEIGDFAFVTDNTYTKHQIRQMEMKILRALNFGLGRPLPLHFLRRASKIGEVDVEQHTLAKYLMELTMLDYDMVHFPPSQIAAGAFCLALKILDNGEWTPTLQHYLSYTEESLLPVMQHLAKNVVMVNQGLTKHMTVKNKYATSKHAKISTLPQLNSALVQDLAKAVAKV

Turning to `C[C@@H](Nc1nc(Nc2ccc(N=S(C)(C)=O)cc2)ncc1Br)C(C)(C)O` [Example 1, N-{4-[(5-Bromo-4-{[(R)-2-hydroxy-1,2-dimethylpropyl]amino}-pyrimidin-2-yl)amino]phenyl}-S,S-dimethylsulfoximide], the pIC50 in experiment [1] was 6.40; in experiment [2] it was 6.30; in experiment [3], 6.22; in the experiment with MaTu-ADR it was 6.10; against CDK2/CycE it was 7.57; against CDK1/CycB, 6.89. Moreover, the pIC50 was 7.13 in experiment [4] and < 5.00 on Human Carboanhydrase-2.
In the case of `C[C@@H](O)[C@@H](C)Nc1nc(Nc2ccc(N=S(C)(C)=O)cc2)ncc1Br` [Example 2, N-{4-[(5-Bromo-4-{[(1R,2R)-2-hydroxy-1-methylpropyl]amino}-pyrimidin-2-yl)amino]phenyl}-S,S-dimethylsulfoximide], the pIC50 is 6.22 in experiment [1]; 6.10 in experiment [2]; 6.00 in experiment [3]; 6.05 in the experiment with MaTu-ADR; 7.96 against CDK2/CycE; 7.49 on CDK1/CycB. Besides, the results for the pIC50 (in experiment [4]; on Human Carboanhydrase-2) were 7.57 and < 5.00, respectively.
Consider `C[C@@H](O)[C@@H](C)Oc1nc(Nc2ccc(N=S(C)(C)=O)cc2)ncc1Br` [Example 3, N-{4-[(5-Bromo-4-{[(1R,2R)-2-hydroxy-1-methylpropyl]oxy}-pyrimidin-2-yl)amino]phenyl}S,S-dimethylsulfoximide], for which the pIC50 in experiment [1] is 6.52; in experiment [2] it was 6.15; in experiment [3] it was 6.00; in the experiment on MaTu-ADR it was 6.30; at CDK2/CycE it was 7.92; on CDK1/CycB it was 7.55. The figures for the pIC50 (in experiment [4]; on Human Carboanhydrase-2) were 7.36 and < 5.00, respectively.
As for `CC(C)[C@H](CO)Nc1nc(Nc2ccc(N=S(C)(C)=O)cc2)ncc1I` [Example 4, N-{4-[(4-{[(R)-1-(Hydroxymethyl)-2-methylpropyl]amino}-5-iodopyrimidin-2-yl)amino]phenyl}-S,S-dimethylsulfoximide], the pIC50 is 5.66 in experiment [1], 6.70 on CDK2/CycE and 7.06 in experiment [4].
As for `Cc1cccc(Nc2nc(Nc3ccc(N=S(C)(C)=O)cc3)ncc2Br)n1` [Example 5, N-[4-({5-Bromo-4-[(6-methyl-2-pyridyl)amino]pyrimidin-2-yl}amino)phenyl]-S,S-dimethylsulfoximide], the pIC50 is 6.15 in experiment [1], 6.47 at CDK2/CycE, 6.31 at CDK1/CycB and 6.74 in experiment [4].
On to `CS(C)(=O)=Nc1ccc(Nc2ncc(Br)c(Nc3ccccc3)n2)cc1` [Example 6, N-{4-[(4-Anilino-5-bromopyrimidin-2-yl)amino]phenyl}-S,S-dimethylsulfoximide], for which the pIC50 in experiment [1] is 6.30; in experiment [2], 6.40; in experiment [3] it was 6.52; with MaTu-ADR, 6.52; in experiment [4], 7.14.
In the case of `C[C@H](CO)Nc1nc(Nc2ccc(N=S(C)(C)=O)cc2)ncc1[N+](=O)[O-]` [Example 7, N-{4-[(4-{[(R)-2-Hydroxy-1-methylethyl]amino}-5-nitropyrimidin-2-yl)amino]phenyl}-S,S-dimethylsulfoximide], in experiment [4], the pIC50 was 6.70.
Turning to `C#CCOc1nc(Nc2ccc(N=S(C)(C)=O)cc2)ncc1C(F)(F)F` [Example 9, S,S-Dimethyl-N-(4-{[4-(prop-2-yn-1-yloxy)-5-(trifluoromethyl)pyrimidin-2-yl]amino}phenyl)sulfoximide], the negative-log IC50 (pIC50) on CDK2/CycE was 6.59; against CDK1/CycB, 6.17; in experiment [4] it was 6.85.
As for `C#CCNc1nc(Nc2ccc(N=S(C)(C)=O)cc2)ncc1C(F)(F)F` [Example 10, S,S-Dimethyl-N-(4-{[4-(prop-2-yn-1-ylamino)-5-(trifluoromethyl)pyrimidin-2-yl]amino}phenyl)sulfoximide], the pIC50 against CDK2/CycE was 6.66; at CDK1/CycB, 6.40; in experiment [4], 6.80.
Turning to `CS(C)(=O)=Nc1ccc(Nc2ncc(Br)c(NC3(CO)CCCC3)n2)cc1` [Example 11, N-{4-[(5-Bromo-4-{[1-(hydroxymethyl)cyclopentyl]amino}pyrimidin-2-yl)amino]phenyl}-S,S-dimethylsulfoximide], the figures for the negative-log IC50 (pIC50) (on CDK2/CycE; in experiment [4]) were 6.17 and 7.27, respectively.
As for `CS(C)(=O)=Nc1ccc(Nc2ncc(Br)c(N[C@H]3CCCC[C@@H]3O)n2)cc1` [Example 12, N-{4-[(5-Bromo-4-{[(1S,2S)-2-hydroxycyclohexyl]amino}pyrimidin-2-yl)amino]phenyl}S,S-dimethylsulfoximide], the pIC50 at CDK2/CycE was 6.34; in experiment [4], 6.55.
As to `CS(C)(=O)=Nc1ccc(Nc2ncc(Br)c(N[C@@H]3CCOC3)n2)cc1` [Example 13, N-[4-({5-Bromo-4-[(R)-(2,3,4,5-tetrahydrofuran-3-yl)amino]pyrimidin-2-yl}amino)phenyl]-S,S-dimethylsulfoximide], the pIC50 in experiment [4] was 7.38.
